Where a name gives a salt, the structure may show the parent alone.
Biological target: T1, methionine aminopeptidase-2 (MetAP2) (Homo sapiens, UniProt P50579)
T1 construct: made in house; host or cells: insect cells, baculovirus system (secreted, purified from culture supernatant)
Test: Inhibition of MetAP2 enzyme activity (96-well, Met-Ala-Ser substrate, L-amino acid oxidase/peroxidase/ortho-dianisidine, 450 nm)
Format: biochemical
Conditions: IC50, recombinant MetAP2 4 μg/mL, pH 7.4, Met-Ala-Ser substrate, 20 minutes
Experimental: The ability of compounds of the present invention to inhibit methionine aminopeptidase 2 was evaluated using the following assay.
Assays for MetAP2 enzyme activity and MetAP2 inhibition were performed in 96-well microtiter plates. Compounds to be tested for MetAP2 inhibition were dissolved in dimethyl-sulfoxide at 10 mM and diluted ten-fold in assay buffer ([…], pH 7.4, 100 mM NaCl). Ten microliters of solution of each compound to be tested for inhibition were introduced into each cell of the plate, with each compound being tested in triplicate.
The absorbence at 450 nanometers was measured every 20 seconds over a period of twenty minutes using an automaic plate reader (Molecular Devices, CA, USA). The Vmax in mOD/min, calculated for each well was used to represent MetAP2 activity. The IC50 for each inhibitor was obtained by plotting the remaining MetAP2 activity versus inhibitor concentration.

T1 sequence (P50579 whole entry): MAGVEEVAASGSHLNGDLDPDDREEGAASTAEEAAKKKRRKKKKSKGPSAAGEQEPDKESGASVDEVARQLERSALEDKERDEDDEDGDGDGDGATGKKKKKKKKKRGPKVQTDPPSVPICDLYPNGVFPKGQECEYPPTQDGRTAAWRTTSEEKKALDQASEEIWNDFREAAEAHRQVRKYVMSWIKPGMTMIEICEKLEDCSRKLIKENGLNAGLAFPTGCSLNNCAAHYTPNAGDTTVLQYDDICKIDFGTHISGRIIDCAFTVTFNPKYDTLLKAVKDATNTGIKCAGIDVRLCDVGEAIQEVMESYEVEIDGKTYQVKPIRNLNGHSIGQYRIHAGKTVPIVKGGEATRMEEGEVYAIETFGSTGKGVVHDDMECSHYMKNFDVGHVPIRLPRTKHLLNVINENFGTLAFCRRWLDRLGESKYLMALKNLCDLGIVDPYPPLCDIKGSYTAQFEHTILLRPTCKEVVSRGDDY

COc1ccc(NC(C)=O)cc1NC(=O)C(O)[C@H](N)CC1CCCCC1 (mixture of isomers) [Example 178, (2RS,3R)-N-(5-(acetylamino)-2-methoxyphenyl)-3-amino-4-cyclohexyl-2-hydroxybutanamide hydrochloride]
IC50: 11000 nM

COc1cc2c(cc1NC(=O)C(O)[C@H](N)CC1CCCCC1)oc1ccccc12 (mixture of isomers) [Example 179, (2RS,3R)-3-amino-4-cyclohexyl-2-hydroxy-N-(2-methoxydibenzo(b,d)furan-3-yl)butanamide hydrochloride]
IC50: 4900 nM

COc1cc(OC)c(NC(=O)C(O)[C@H](N)CC2CCCCC2)cc1Cl (mixture of isomers) [Example 180, (2RS,3R)-3-amino-N-(5-chloro-2,4-dimethoxyphenyl)-4-cyclohexyl-2-hydroxybutanamide hydrochloride]
IC50: 2000 nM

CCOc1ccc(OCC)c(NC(=O)C(O)[C@H](N)CC2CCCCC2)c1 (mixture of isomers) [Example 181, (2RS,3R)-3-amino-4-cyclohexyl-N-(2,5-diethoxyphenyl)-2-hydroxybutanamide hydrochloride]
IC50: 9800 nM

COc1ccc(C(C)(C)C)cc1NC(=O)C(O)[C@H](N)CC1CCCCC1 (mixture of isomers) [Example 182, (2RS,3R)-3-amino-N-(5-(tert-butyl)-2-methoxyphenyl)-4-cyclohexyl-2-hydroxybutanamide hydrochloride]
IC50: 8000 nM

N[C@H](CC1CCCCC1)C(O)C(=O)Nc1ccccc1Oc1ccccc1 (mixture of isomers) [Example 183, (2RS,3R)-3-amino-4-cyclohexyl-2-hydroxy-N-(2-phenoxyphenyl)butanamide hydrochloride]
IC50: 8700 nM

Cc1ccc([N+](=O)[O-])cc1NC(=O)C(O)[C@H](N)CC1CCCCC1 (mixture of isomers) [Example 184, (2RS,3R)-3-amino-4-cyclohexyl-2-hydroxy-N-(2-methyl-5-nitrophenyl)butanamide hydrochloride]
IC50: 430 nM

N[C@H](CC1CCCCC1)C(O)C(=O)Nc1ccc(Oc2ccccc2)cc1 (mixture of isomers) [Example 185, (2RS,3R)-3-amino-4-cyclohexyl-2-hydroxy-N-(4-phenoxyphenyl)butanamide hydrochloride]
IC50: 1800 nM

COc1ccc(CNC(=O)C(O)[C@H](N)CC2CCCCC2)cc1 (mixture of isomers) [Example 186, (2RS,3R)-3-amino-4-cyclohexyl-2-hydroxy-N-(4-methoxybenzyl)butanamide hydrochloride]
IC50: 1100 nM

Cc1ccc(CNC(=O)C(O)[C@H](N)CC2CCCCC2)cc1 (mixture of isomers) [Example 187, (2RS,3R)-3-amino-4-cyclohexyl-2-hydroxy-N-(4-methylbenzyl)butanamide hydrochloride]
IC50: 1200 nM

N[C@H](CC1CCCCC1)C(O)C(=O)NCc1cccc(Cl)c1 (mixture of isomers) [Example 188, (2RS,3R)-3-amino-N-(3-chlorobenzyl)-4-cyclohexyl-2-hydroxybutanamide hydrochloride]
IC50: 1600 nM

COc1cccc(CNC(=O)C(O)[C@H](N)CC2CCCCC2)c1 (mixture of isomers) [Example 189, (2RS,3R)-3-amino-4-cyclohexyl-2-hydroxy-N-(3-methoxybenzyl)butanamide hydrochloride]
IC50: 1500 nM

N[C@H](CC1CCCCC1)C(O)C(=O)NCc1ccc(Br)cc1 (mixture of isomers) [Example 190, (2RS,3R)-3-amino-N-(4-bromobenzyl)-4-cyclohexyl-2-hydroxybutanamide hydrochloride]
IC50: 1300 nM

Cc1cccc(CNC(=O)C(O)[C@H](N)CC2CCCCC2)c1 (mixture of isomers) [Example 191, (2RS,3R)-3-amino-4-cyclohexyl-2hydroxy-N-(3-methylbenzyl)butanamide hydrochloride]
IC50: 2500 nM

N[C@H](CC1CCCCC1)C(O)C(=O)NCCc1ccccc1 (mixture of isomers) [Example 192, (2RS,3R)-3-amino-4-cyclohexyl-2-hydroxy-N-phenethylbutanamide hydrochloride]
IC50: 1200 nM

N[C@H](CC1CCCCC1)C(O)C(=O)NCc1ccc(Cl)cc1 (mixture of isomers) [Example 193, (2RS,3R)-3-amino-N-(4-chlorobenzyl)-4-cyclohexyl-2-hydroxybutanamide hydrochloride]
IC50: 2500 nM

Cc1ccc(CCNC(=O)C(O)[C@H](N)CC2CCCCC2)cc1 (mixture of isomers) [Example 194, (2RS,3R)-3-amino-4-cyclohexyl-2-hydroxy-N-(4-methylphenethyl)butanamide hydrochloride]
IC50: 1400 nM

COc1ccc(CCNC(=O)C(O)[C@H](N)CC2CCCCC2)cc1 (mixture of isomers) [Example 195, (2RS,3R)-3-amino-4-cyclohexyl-2-hydroxy-N-(4-methoxyphenethyl)butanamide hydrochloride]
IC50: 1300 nM

COc1cccc(CCNC(=O)C(O)[C@H](N)CC2CCCCC2)c1 (mixture of isomers) [Example 196, (2RS,3R)-3-amino-4-cyclohexyl-2-hydroxy-N-(3-methoxyphenethyl)butanamide hydrochloride]
IC50: 820 nM

COc1ccccc1CCNC(=O)C(O)[C@H](N)CC1CCCCC1 (mixture of isomers) [Example 197, (2RS,3R)-3-amino-4-cyclohexyl-2-hydroxy-N-(2-methoxyphenethyl)butanamide hydrochloride]
IC50: 580 nM

N[C@H](CC1CCCCC1)C(O)C(=O)NCCc1ccc(Cl)cc1 (mixture of isomers) [Example 198, (2RS,3R)-3-amino-N-(4-chlorophenethyl)-4-cyclohexyl-2-hydroxybutanamide hydrochloride]
IC50: 840 nM

N[C@H](CC1CCCCC1)C(O)C(=O)NCCc1cccc(Cl)c1 (mixture of isomers) [Example 199, (2RS,3R)-3-amino-N-(3-chlorophenethyl)-4-cyclohexyl-2-hydroxybutanamide hydrochloride]
IC50: 1000 nM

N[C@H](CC1CCCCC1)C(O)C(=O)NCCc1cccc(C(F)(F)F)c1 (mixture of isomers) [Example 200, (2RS,3R)-3-amino-4-cyclohexyl-2-hydroxy-N-(3-(trifluoromethyl)phenethyl)butanamide Hydrochloride]
IC50: 1500 nM

N[C@H](CC1CCCCC1)C(O)C(=O)NCCc1ccc(Br)cc1 (mixture of isomers) [Example 201, (2RS,3R)-3-amino-N-(4-bromophenethyl)-4-cyclohexyl-2-hydroxybutanamide Hydrochloride]
IC50: 710 nM

N[C@H](CC1CCCCC1)C(O)C(=O)NC12CC3CC(CC(C3)C1)C2 (mixture of isomers) [Example 202, (2RS,3R)-N-(1-adamantyl)-3-amino-4-cyclohexyl-2-hydroxybutanamide Hydrochloride]
IC50: 8300 nM

N[C@H](CC1CCCCC1)C(O)C(=O)NC1C2CC3CC(C2)CC1C3 (mixture of isomers) [Example 203, (2RS,3R)-N-(2-adamantyl)-3-amino-4-cyclohexyl-2-hydroxybutanamide Hydrochloride]
IC50: 4900 nM

N[C@H](CC1CCCCC1)C(O)C(=O)NC1CCCCCC1 (mixture of isomers) [Example 204, (2RS,3R)-3-amino-N-cycloheptyl-4-cyclohexyl-2-hydroxybutanamide Hydrochloride]
IC50: 3800 nM

N[C@H](CC1CCCCC1)C(O)C(=O)NCC1CCCCC1 (mixture of isomers) [Example 205, (2RS,3R)-3-amino-4-cyclohexyl-N-(cyclohexylmethyl)-2-hydroxybutanamide Hydrochloride]
IC50: 2500 nM

N[C@H](CC1CCCCC1)C(O)C(=O)NC1CCCCC1 (mixture of isomers) [Example 206, (2RS,3R)-3-amino-N,4-dicyclohexyl-2-hydroxybutanamide Hydrochloride]
IC50: 10000 nM

N[C@H](CC1CCCCC1)C(O)C(=O)NC1CCCC1 (mixture of isomers) [Example 207, (2RS,3R)-3-amino-4-cyclohexyl-N-cyclopentyl-2-hydroxybutanamide Hydrochloride]
IC50: 4100 nM

N[C@H](CC1CCCCC1)C(O)C(=O)NC1CCC1 (mixture of isomers) [Example 208, (2RS,3R)-3-amino-N-cyclobutyl-4-cyclohexyl-2-hydroxybutanamide Hydrochloride]
IC50: 2700 nM

CC(CCc1ccccc1)NC(=O)C(O)[C@H](N)CC1CCCCC1 (mixture of isomers) [Example 209, (2RS,3R)-3-amino-4-cyclohexyl-2-hydroxy-N-(1-methyl-3-phenylpropyl)butanamide Hydrochloride]
IC50: 14000 nM

CC(Cc1cccc(C(F)(F)F)c1)NC(=O)C(O)[C@H](N)CC1CCCCC1 (mixture of isomers) [Example 210, (2RS,3R)-3-amino-4-cyclohexyl-2-hydroxy-N-(1-methyl-2-(3-(trifluoromethyl)phenyl)ethyl)butanamide Hydrochloride]
IC50: 2300 nM

CCCCCC(C)NC(=O)C(O)[C@H](N)CC1CCCCC1 (mixture of isomers) [Example 212, (2RS,3R)-3-amino-4-cyclohexyl-2-hydroxy-N-(1-methylhexyl)butanamide Hydrochloride]
IC50: 1700 nM

CC(C)OCCCNC(=O)C(O)[C@H](N)CC1CCCCC1 (mixture of isomers) [Example 213, (2RS,3R)-3-amino-4-cyclohexyl-2-hydroxy-N-(3-isopropoxypropyl)butanamide Hydrochloride]
IC50: 2600 nM
